Laboratory results taken from ChEMBL document CHEMBL5543130, “Design, Synthesis, and In Vivo Evaluation of Isosteviol Derivatives as New SIRT3 Activators with Highly Potent Cardioprotective Effects” (J Med Chem, 2024).
Values after ≈ are worked out from the molar mass of the structure shown. Active and inactive are the calls of the source. The calls are words filed in the database; no cut-off is given here.

Legend:
Danio rerio [1] = assay: Cardioprotective activity against doxorubicin-induced Zebrafish cardiomyopathy model at 5 to 15 uM fertilized for 24 hrs followed by compound administration for 72 hrs and measured at 96 hrs post fertilization by inverted fluorescence microscopic analysis; format: functional, organism-based; conditions: dose 5-15 µM
Danio rerio [2] = assay: Cardioprotective activity against doxorubicin-induced Zebrafish cardiomyopathy model assessed as survival rate at 15 uM fertilized for 24 hrs followed by compound administration for 72 hrs and measured at 96 hrs post fertilization by inverted fluorescence microscopic analysis; format: functional
Danio rerio [3] = assay: Cardioprotective activity against doxorubicin-induced Zebrafish cardiomyopathy model assessed as survival rate at 5 to 15 uM fertilized for 24 hrs followed by compound administration for 72 hrs and measured at 96 hrs post fertilization by inverted fluorescence microscopic analysis; format: functional; conditions: dose 5-15 µM
[4] = Toxicity in zebrafish embryos assessed as survival at upto 40 uM fertilized for 24 hrs followed by compound administration for 72 hrs and measured at 96 hrs post fertilization; design: species or system Danio rerio; conditions: in vivo
Danio rerio [5] = assay: Cardioprotective activity against doxorubicin-induced Zebrafish cardiomyopathy model assessed as survival rate at 5 uM fertilized for 24 hrs followed by compound administration for 72 hrs and measured at 96 hrs post fertilization by inverted fluorescence microscopic analysis; format: functional; conditions: Danio rerio
[6] = Water solubility of the compound measured for 24 hrs by HPLC analysis; format: physicochemical
Danio rerio [7] = organism: Danio rerio; assay: Cardioprotective activity against doxorubicin-induced Tg(cmlc2: GFP) Zebrafish assessed as restoration of normal heart structure at 5 uM measured at 72 hrs post fertilization; format: functional, organism-based
Danio rerio [8] = organism: Danio rerio; assay: Cardioprotective activity against doxorubicin-induced Tg(cmlc2: GFP) Zebrafish assessed as reduction in cTnT mRNA level measured at 72 hrs post fertilization by qPCR analysis; format: functional, organism-based; conditions: dose <= 5.0 µM
Danio rerio [9] = assay: Cardioprotective activity against doxorubicin-induced Tg(cmlc2: GFP) Zebrafish assessed as […] at 5 uM measured at 72 hrs post fertilization; format: functional, organism-based
Mus musculus [10] = organism: Mus musculus; assay: Antioxidant activity against doxorubicin-induced C57BL/6 mouse assessed as decrease in MDA level in heart; format: functional, organism-based
Danio rerio [11] = organism: Danio rerio; assay: Cardioprotective activity against doxorubicin-induced Tg(cmlc2: GFP) Zebrafish assessed as reduction in Anp mRNA level measured at 72 hrs post fertilization by qPCR analysis; format: functional, organism-based; conditions: dose <= 5.0 µM
H9c2 [12] = assay: Antioxidant activity against doxorubicin-induced rat H9c2 cells assessed as increase in SOD level upto 10 uM; format: functional, cell-based
H9c2 [13] = assay: Antioxidant activity against doxorubicin-induced rat H9c2 cells assessed as increase in SOD level upto 10 uM in presence of 3-TYP; format: functional, cell-based
H9c2 [14] = assay: Upregulation of SOD2 expression in rat H9c2 cells upto 10 uM by Western blot analysis; format: functional, cell-based
H9c2 [15] = assay: Cardioprotective activity against doxorubicin-induced rat H9c2 cells assessed as downregulation of Anp mRNA level upto 10 uM qPCR analysis; format: functional, cell-based
H9c2 [16] = assay: Upregulation of SIRT3 expression in rat H9c2 cells upto 10 uM by Western blot analysis; format: functional, cell-based
H9c2 [17] = assay: Antioxidant activity against doxorubicin-induced rat H9c2 cells assessed as increase in GSH level upto 10 uM; format: functional, cell-based
H9c2 [18] = assay: Cardioprotective activity against doxorubicin-induced rat H9c2 cells assessed as increase in cell viability incubated for 24 hrs by CCK-8 assay; format: functional, cell-based; conditions: dose 1-10 µM
Danio rerio [19] = organism: Danio rerio; assay: Cardioprotective activity against doxorubicin-induced Tg(cmlc2: GFP) Zebrafish at 15 uM measured at 72 hrs post fertilization; format: functional, organism-based
H9c2 [20] = assay: Cardioprotective activity against doxorubicin-induced rat H9c2 cells assessed as reduction in LDH release upto 10 uM in presence of 3-TYP; format: functional, cell-based
H9c2 [21] = assay: Upregulation of SOD2 expression in doxorubicin-induced rat H9c2 cells transfected with SIRT3 siRNA at 10 uM by Western blot analysis; format: functional, cell-based
Mus musculus [22] = assay: Cardioprotective activity against doxorubicin-induced C57BL/6 mouse cardiomyopathy model assessed as collagen fraction volume at 2.5 mg/kg, ip administered for 7 days by Sirius staining based analysis; format: functional, organism-based; conditions: time 7.0 day
Mus musculus [23] = organism: Mus musculus; assay: Antioxidant activity against doxorubicin-induced C57BL/6 mouse assessed as increase in GSH level in heart; format: functional, organism-based
H9c2 [24] = assay: Induction of ROS accumulation in doxorubicin-induced rat H9c2 cells transfected with SIRT3 siRNA assessed as reduction in fluorescence intensity at 10 uM incubated for 30 min in presence of 3-TYP by DCFH-DA and PI staining based microscopic analysis; format: functional, cell-based
H9c2 [25] = assay: Cardioprotective activity against doxorubicin-induced rat H9c2 cells assessed as increase in cell viability at 10 uM incubated for 24 hrs by CCK-8 assay; format: functional, cell-based
Danio rerio [26] = organism: Danio rerio; assay: Cardioprotective activity against doxorubicin-induced Tg(cmlc2: GFP) Zebrafish assessed as reduction in Bnp mRNA level measured at 72 hrs post fertilization by qPCR analysis; format: functional, organism-based
Mus musculus [27] = assay: Cardioprotective activity against doxorubicin-induced C57BL/6 mouse cardiomyopathy model assessed as upregulation of […] level at 2.5 mg/kg, ip administered for 7 days by Western blot analysis; format: functional, organism-based; conditions: time 7.0 day
H9c2 [28] = assay: Induction of mitochondrial membrane potential loss in doxorubicin-induced rat H9c2 cells incubated for 30 mins by JC-1 staining based fluorescence microscopic analysis; format: cell-based; conditions: dose 1-10 µM
Mus musculus [29] = assay: Cardioprotective activity against doxorubicin-induced C57BL/6 mouse cardiomyopathy model assessed as reduction in Anp mRNA level at 2.5 mg/kg, ip administered for 7 days; format: functional, organism-based; conditions: time 7.0 day
H9c2 [30] = assay: Upregulation of OPA1 expression in doxorubicin-induced rat H9c2 cells transfected with SIRT3 siRNA at 10 uM by Western blot analysis; format: functional, cell-based
H9c2 [31] = assay: Induction of mitochondrial membrane potential loss in doxorubicin-induced rat H9c2 cells incubated for 30 mins in prsence of 3-TYP by JC-1 staining based fluorescence microscopic analysis; format: cell-based
H9c2 [32] = assay: Induction of ROS accumulation in doxorubicin-induced rat H9c2 cells assessed as reduction in fluorescence intensity upto 10 uM incubated for 30 min in presence of 3-TYP by DCFH-DA and PI staining based microscopic analysis; format: functional, cell-based
H9c2 [33] = assay: Antioxidant activity against doxorubicin-induced rat H9c2 cells assessed as decrease in MDA level upto 10 uM in presence of 3-TYP; format: functional, cell-based
H9c2 [34] = assay: Upregulation of OPA1 expression in rat H9c2 cells upto 10 uM by Western blot analysis; format: functional, cell-based
H9c2 [35] = assay: Antioxidant activity against doxorubicin-induced rat H9c2 cells assessed as decrease in MDA level upto 10 uM; format: functional, cell-based
Mus musculus [36] = assay: Cardioprotective activity against doxorubicin-induced C57BL/6 mouse cardiomyopathy model assessed as collagen fraction volume at 2.5 mg/kg, ip administered for 7 days by masson staining based analysis; format: functional, organism-based; conditions: time 7.0 day
H9c2 [37] = assay: Antioxidant activity against doxorubicin-induced rat H9c2 cells assessed as increase in GSH level upto 10 uM in presence of 3-TYP; format: functional, cell-based
Danio rerio [38] = organism: Danio rerio; assay: Cardioprotective activity against doxorubicin-induced Tg(cmlc2: GFP) Zebrafish at 5 uM measured at 72 hrs post fertilization; format: functional, organism-based
H9c2 [39] = assay: Induction of ROS accumulation in doxorubicin-induced rat H9c2 cells assessed as reduction in fluorescence intensity incubated for 30 min by DCFH-DA and PI staining based microscopic analysis; format: functional, cell-based; conditions: dose 1-10 µM
Mus musculus [40] = assay: Cardioprotective activity against doxorubicin-induced C57BL/6 mouse cardiomyopathy model assessed as upregulation of SOD2 level at 2.5 mg/kg, ip administered for 7 days by Western blot analysis; format: functional, organism-based; conditions: time 7.0 day
H9c2 [41] = assay: Cardioprotective activity against doxorubicin-induced rat H9c2 cells assessed as downregulation of Bnp mRNA level upto 10 uM qPCR analysis; format: functional, cell-based
H9c2 [42] = assay: Cardioprotective activity against doxorubicin-induced rat H9c2 cells assessed as increase in cell viability at 10 uM incubated for 24 hrs in presence of 3-TYP by CCK-8 assay; format: functional, cell-based
H9c2 [43] = assay: Cardioprotective activity against doxorubicin-induced rat H9c2 cells assessed as reduction in LDH release upto 10 uM; format: functional, cell-based
Mus musculus [44] = assay: Cardioprotective activity against doxorubicin-induced C57BL/6 mouse cardiomyopathy model assessed as reduction in cTnT mRNA level at 2.5 mg/kg, ip administered for 7 days; format: functional, organism-based; conditions: time 7.0 day
Mus musculus [45] = assay: Cardioprotective activity against doxorubicin-induced C57BL/6 mouse cardiomyopathy model assessed as upregulation of SIRT3 level at 2.5 mg/kg, ip administered for 7 days by Western blot analysis; format: functional, organism-based; conditions: time 7.0 day
H9c2 [46] = assay: Cardioprotective activity against doxorubicin-induced rat H9c2 cells assessed as increase in cell viability at 10 uM incubated for 24 hrs in presence of EX527 by CCK-8 assay; format: functional, cell-based
Mus musculus [47] = assay: Cardioprotective activity against doxorubicin-induced C57BL/6 mouse cardiomyopathy model assessed as reduction in Bnp mRNA level at 2.5 mg/kg, ip administered for 7 days; format: functional, organism-based; conditions: time 7.0 day
H9c2 [48] = assay: Induction of mitochondrial membrane potential loss in doxorubicin-induced rat H9c2 cells transfected with SIRT3 siRNA incubated for 30 mins in prsence of 3-TYP by JC-1 staining based fluorescence microscopic analysis; format: cell-based
H9c2 [49] = assay: Cardioprotective activity against doxorubicin-induced rat H9c2 cells assessed as downregulation of cTnT mRNA level upto 10 uM qPCR analysis; format: functional, cell-based

SMILES: C[C@@]12CC[C@@H]3[C@@](CC[C@H]4[C@@]3(C)CCC[C@@]4(C)C(=O)N3CCN(C(=O)COCC(=O)O)CC3)(CC1=O)C2
- Activity (Danio rerio [1]): Active

SMILES: CC(C)(CC(=O)O)C(=O)N1CCN(C(=O)[C@]2(C)CCC[C@@]3(C)[C@@H]4CC[C@@]5(C)C[C@]4(CC[C@@H]32)CC5=O)CC1
- Activity (Danio rerio [1]): Active

SMILES: C[C@@]12CC[C@@H]3[C@@](CC[C@H]4[C@@]3(C)CCC[C@@]4(C)C(=O)N3CCN(C(=O)/C=C/C(=O)O)CC3)(CC1=O)C2
- survival at 15 µM (Danio rerio [2]): 50%
- Activity (Danio rerio [1]): Active

SMILES: COc1cccc(C(=O)N2CCN(C(=O)[C@]3(C)CCC[C@@]4(C)[C@@H]5CC[C@@]6(C)C[C@]5(CC[C@@H]43)CC6=O)CC2)c1OC
- Survival (Danio rerio [3]): 86%

SMILES: C[C@@]12CC[C@@H]3[C@@](CC[C@H]4[C@@]3(C)CCC[C@@]4(C)C(=O)N3CCN(C(=O)CCCC(=O)O)CC3)(CC1=O)C2
- Activity (Danio rerio [1]): Active

SMILES: C[C@@]12CC[C@@H]3[C@@](CC[C@H]4[C@@]3(C)CCC[C@@]4(C)C(=O)N3CCN(C(=O)c4ccccc4C(=O)O)CC3)(CC1=O)C2 [listing 1 of 2 here]
- Activity [4]: Non-Toxic
- survival at 5 µM (Danio rerio [5]): 50%
- solubility at 24 h [6]: 0.94 mg/mL (≈ 1760 µM)
- Survival (Danio rerio [3]): 50%

SMILES: C[C@@]12CC[C@@H]3[C@@](CC[C@H]4[C@@]3(C)CCC[C@@]4(C)C(=O)N3CCN(C(=O)c4ccccc4C(=O)O)CC3)(CC1=O)C2 [listing 2 of 2 here]
- Activity (Danio rerio [7]): Active
- Activity (Danio rerio [8]): Dose-Dependent Effect
- Activity (Danio rerio [9]): Active
- Activity (Mus musculus [10]): Active
- Activity (Danio rerio [11]): Dose-Dependent Effect
- Activity (H9c2 [12]): Active
- Activity (H9c2 [13]): Active
- Activity (H9c2 [14]): Active
- Activity (H9c2 [15]): Active
- Activity (H9c2 [16]): Active
- Activity (H9c2 [17]): Active
- Activity (H9c2 [18]): Dose-Dependent Effect
- Activity (Danio rerio [19]): Active
- Activity (H9c2 [20]): Active
- Activity (H9c2 [21]): Active
- Activity (Mus musculus [22]): Active
- Activity (Mus musculus [23]): Active
- Activity (H9c2 [24]): Active
- Activity (H9c2 [25]): Active
- Activity (Danio rerio [26]): Dose-Dependent Effect
- Activity (Mus musculus [27]): Active
- Activity (H9c2 [28]): Dose-Dependent Effect
- Activity (Mus musculus [29]): Active
- Activity (H9c2 [30]): Active
- Activity (H9c2 [31]): Active
- Activity (H9c2 [32]): Active
- Activity (H9c2 [33]): Active
- Activity (H9c2 [34]): Active
- Activity (H9c2 [35]): Active
- Activity (Mus musculus [36]): Active
- Activity (H9c2 [37]): Active
- Activity (Danio rerio [38]): Active
- Activity (H9c2 [39]): Dose-Dependent Effect
- Activity (Mus musculus [40]): Active
- Activity (H9c2 [41]): Active
- Activity (H9c2 [42]): inactive
- Activity (H9c2 [43]): Active
- Activity (Mus musculus [44]): Active
- Activity (Mus musculus [45]): Active
- Activity (H9c2 [46]): inactive
- Activity (Mus musculus [47]): Active
- Activity (H9c2 [48]): Active
- Activity (H9c2 [49]): Active
